This test deals with CK enzyme expressed in the tumor. As to the kind of experiment: In vivo CEST imaging of creatine kinase expression in tumor after tail vein injection of PCr. Particulars: 60 minutes post infusion (tail vein injection of PCr) vs base line CEST map, FIG. 3. The method, then:
In certain embodiments, the radio frequency (RF) pulse can be provided at different frequency offsets. In certain embodiments, to detect the conversion of phosphocreatine to creatine, an RF pulse was applied at a frequency offset of about 1.8 ppm for a period of about 1 to about 3 seconds.
“b” is the base line CEST map from the same slice. “c” is a CEST map of the same slice at 60 minutes following tail vein injection of PCr.

We go through 1 molecule from patent US20170184695A1, “IMAGING OF CREATINE KINASE ENZYME EXPRESSION IN CANCEROUS TISSUES” (Sidra Medical and Research Center, priority 2014, published 2017).

Structures are written as SMILES.

In the case of `CN(CC(=O)O)C(=N)NP(=O)(O)O` [PCr, phosphocreatine], the “increase in CEST contrast” value is listed as “about 11%”.
